# Results taken from ChEMBL document CHEMBL3352660, “Design, synthesis and pharmacological evaluation of novel polycyclic heteroarene ethers as PDE10A inhibitors: part II” (Bioorg Med Chem Lett, 2014).
# Experiments:
# [1] = Plasma clearance in iv dosed Sprague-Dawley rat; assay type: ADME, organism-based
# [2] = system: Rattus norvegicus; assay: Antipsychotic activity in Sprague-Dawley rat psychosis model assessed as reversal of MK-801-induced ataxia at 3 mg/kg, po administered 2 hrs prior to MK-801 challenge measured every 5 mins for 1 hr starting 15 mins post MK-801 injection relative to vehicle-treated control; assay type: functional
# [3] = molecular target: High affinity 3',5'-cyclic-AMP phosphodiesterase 7A (Homo sapiens) (UniProt Q13946); assay: Inhibition of human recombinant PDE7A using [3H]-cAMP as substrate at 1 uM after 30 mins by two-step radiometric assay
# [4] = system: Rattus norvegicus; assay: Antipsychotic activity in po dosed Sprague-Dawley rat psychosis model assessed as reversal of MK-801-induced locomotion administered 2 hrs prior to MK-801 challenge measured every 5 mins for 1 hr starting 15 mins post MK-801 injection relative to vehicle-treated control; assay type: functional
# [5] = system: Rattus norvegicus; assay: Antipsychotic activity in Sprague-Dawley rat psychosis model assessed as reversal of MK-801-induced locomotion at 3 mg/kg, po administered 2 hrs prior to MK-801 challenge measured every 5 mins for 1 hr starting 15 mins post MK-801 injection relative to vehicle-treated control; assay type: functional
# [6] = Metabolic stability in cynomolgus monkey liver microsomes incubated for 10 mins prior to NADPH addition measured after 60 mins by LC/MS/MS analysis; assay type: ADME, Macaca fascicularis; conditions: read-out: Stability
# [7] = molecular target: cGMP-specific 3',5'-cyclic phosphodiesterase (Homo sapiens) (UniProt O76074); assay: Inhibition of human recombinant PDE5A using […] as substrate at 10 uM after 30 mins by scintillation proximity assay
# [8] = Tmax in Sprague-Dawley rat at 10 mg/kg, po; assay type: ADME, organism-based; design: dose 10 mg/kg, route oral; conditions: in vivo
# [9] = system: Mus musculus; assay: Ratio of ED50 for po dosed Swiss albino mouse assessed as inhibition of apomorphine-induced sniffing behavior administered 30 mins prior to apomorphine challenge to ED50 for po dosed Swiss albino mouse assessed as inhibition of apomorphine-induced climbing behavior administered 30 mins prior to apomorphine challenge; assay type: functional
# [10] = Metabolic stability in Wistar rat liver microsomes incubated for 10 mins prior to NADPH addition measured after 60 mins by LC/MS/MS analysis; assay type: ADME; conditions: read-out: Stability
# [11] = molecular target: cAMP and cAMP-inhibited cGMP 3',5'-cyclic phosphodiesterase 10A (Homo sapiens, UniProt Q9Y233); assay: Inhibition of human recombinant GST-tagged PDE10A using [3H]-cAMP as substrate at 1 uM after 30 mins by scintillation proximity assay
# [12] = system: Brain; assay: Free drug level in Sprague-Dawley rat brain at 10 mg/kg, po after 1 hr by LC/MS/MS analysis; assay type: ADME, organism-based; design: dose 10 mg/kg, route oral; conditions: in vivo
# [13] = Plasma clearance in iv dosed Swiss albino mouse; assay type: ADME, organism-based
# [14] = system: Rattus norvegicus; assay: Antipsychotic activity in Sprague-Dawley rat psychosis model assessed as reversal of MK-801-induced stereotypy at 10 mg/kg, po administered 2 hrs prior to MK-801 challenge measured every 5 mins for 1 hr starting 15 mins post MK-801 injection relative to vehicle-treated control; assay type: functional
# [15] = molecular target: cGMP-inhibited 3',5'-cyclic phosphodiesterase 3A (Homo sapiens) (UniProt Q14432); assay: Inhibition of human recombinant PDE3A using cAMP as substrate at 1 uM after 30 mins by HTRF method
# [16] = Apparent permeability of the compound by PAMPA; assay type: physicochemical
# [17] = molecular target: T1, cAMP and cAMP-inhibited cGMP 3',5'-cyclic phosphodiesterase 10A (Mus musculus, UniProt Q8CA95); assay: Inhibition of mouse recombinant GST-tagged PDE10A using [3H]-cAMP as substrate after 30 mins by scintillation proximity assay
# T1 sequence (Q8CA95 whole entry): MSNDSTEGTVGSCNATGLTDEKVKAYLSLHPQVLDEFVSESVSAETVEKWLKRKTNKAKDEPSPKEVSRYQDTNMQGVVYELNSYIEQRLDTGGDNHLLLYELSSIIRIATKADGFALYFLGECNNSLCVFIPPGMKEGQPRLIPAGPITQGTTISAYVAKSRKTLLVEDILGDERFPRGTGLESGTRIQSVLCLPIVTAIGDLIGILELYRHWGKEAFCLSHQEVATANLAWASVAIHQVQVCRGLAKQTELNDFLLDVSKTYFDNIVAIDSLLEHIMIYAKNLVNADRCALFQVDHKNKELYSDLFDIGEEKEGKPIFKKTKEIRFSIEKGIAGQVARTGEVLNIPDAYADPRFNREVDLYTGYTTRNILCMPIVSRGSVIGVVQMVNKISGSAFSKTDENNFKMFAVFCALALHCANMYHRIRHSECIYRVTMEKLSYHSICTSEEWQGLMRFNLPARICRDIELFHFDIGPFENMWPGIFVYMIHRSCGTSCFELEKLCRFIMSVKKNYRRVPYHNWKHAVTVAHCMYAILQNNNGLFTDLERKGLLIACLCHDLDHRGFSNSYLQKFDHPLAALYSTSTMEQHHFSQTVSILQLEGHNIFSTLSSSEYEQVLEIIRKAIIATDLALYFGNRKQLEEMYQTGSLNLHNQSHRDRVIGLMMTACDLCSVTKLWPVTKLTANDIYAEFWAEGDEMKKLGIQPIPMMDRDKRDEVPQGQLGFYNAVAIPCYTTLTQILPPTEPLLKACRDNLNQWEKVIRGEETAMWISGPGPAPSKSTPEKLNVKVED
# [18] = Half life in Swiss albino mouse at 10 mg/kg, po; assay type: ADME, organism-based; design: dose 10 mg/kg, route oral; conditions: in vivo
# [19] = molecular target: High affinity 3',5'-cyclic-AMP phosphodiesterase 7A (Homo sapiens) (UniProt Q13946); assay: Inhibition of human recombinant PDE7A using [3H]-cAMP as substrate at 10 uM after 30 mins by two-step radiometric assay
# [20] = molecular target: 3',5'-cyclic-AMP phosphodiesterase 4D (Homo sapiens) (UniProt Q08499); assay: Inhibition of human recombinant PDE4D using [3H]-cAMP as substrate at 10 uM after 30 mins by two-step radiometric assay
# [21] = Metabolic stability in CD1 mouse liver microsomes incubated for 10 mins prior to NADPH addition measured after 60 mins by LC/MS/MS analysis; assay type: ADME; conditions: read-out: Stability
# [22] = system: Rattus norvegicus; assay: Antipsychotic activity in Sprague-Dawley rat psychosis model assessed as reversal of MK-801-induced ataxia at 10 mg/kg, po administered 2 hrs prior to MK-801 challenge measured every 5 mins for 1 hr starting 15 mins post MK-801 injection relative to vehicle-treated control; assay type: functional
# [23] = system: Rattus norvegicus; assay: Antipsychotic activity in po dosed Sprague-Dawley rat prepulse inhibition deficit model assessed as reversal of MK-801-induced effect administered 110 mins prior to MK-801 challenge relative to vehicle-treated control; assay type: functional
# [24] = system: Rattus norvegicus; assay: Antipsychotic activity in Sprague-Dawley rat psychosis model assessed as reversal of MK-801-induced locomotion at 1 mg/kg, po administered 2 hrs prior to MK-801 challenge measured every 5 mins for 1 hr starting 15 mins post MK-801 injection relative to vehicle-treated control; assay type: functional
# [25] = system: Rattus norvegicus; assay: Antipsychotic activity in Sprague-Dawley rat conditioned avoidance response model assessed as avoidance of shock at 1 mg/kg, po measured after 2 hrs relative to vehicle-treated control; assay type: functional
# [26] = system: Rattus norvegicus; assay: Antipsychotic activity in Sprague-Dawley rat psychosis model assessed as reversal of MK-801-induced stereotypy at 3 mg/kg, po administered 2 hrs prior to MK-801 challenge measured every 5 mins for 1 hr starting 15 mins post MK-801 injection relative to vehicle-treated control; assay type: functional
# Sequence of High affinity 3',5'-cyclic-AMP phosphodiesterase 7A (Homo sapiens) (Q13946 whole entry): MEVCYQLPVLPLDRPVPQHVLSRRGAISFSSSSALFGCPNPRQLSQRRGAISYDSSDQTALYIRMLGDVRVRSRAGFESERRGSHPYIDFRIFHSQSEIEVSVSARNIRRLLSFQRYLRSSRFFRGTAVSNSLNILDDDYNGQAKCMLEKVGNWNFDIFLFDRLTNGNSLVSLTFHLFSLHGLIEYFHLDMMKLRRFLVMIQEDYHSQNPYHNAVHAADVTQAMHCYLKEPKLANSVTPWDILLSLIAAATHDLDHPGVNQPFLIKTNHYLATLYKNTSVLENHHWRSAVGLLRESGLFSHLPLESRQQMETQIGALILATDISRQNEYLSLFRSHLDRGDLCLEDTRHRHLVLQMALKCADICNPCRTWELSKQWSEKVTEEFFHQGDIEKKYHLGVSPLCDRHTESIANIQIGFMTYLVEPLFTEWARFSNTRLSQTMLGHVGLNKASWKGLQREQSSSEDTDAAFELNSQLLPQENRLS
# Sequence of cAMP and cAMP-inhibited cGMP 3',5'-cyclic phosphodiesterase 10A (Homo sapiens, UniProt Q9Y233) (Q9Y233 whole entry): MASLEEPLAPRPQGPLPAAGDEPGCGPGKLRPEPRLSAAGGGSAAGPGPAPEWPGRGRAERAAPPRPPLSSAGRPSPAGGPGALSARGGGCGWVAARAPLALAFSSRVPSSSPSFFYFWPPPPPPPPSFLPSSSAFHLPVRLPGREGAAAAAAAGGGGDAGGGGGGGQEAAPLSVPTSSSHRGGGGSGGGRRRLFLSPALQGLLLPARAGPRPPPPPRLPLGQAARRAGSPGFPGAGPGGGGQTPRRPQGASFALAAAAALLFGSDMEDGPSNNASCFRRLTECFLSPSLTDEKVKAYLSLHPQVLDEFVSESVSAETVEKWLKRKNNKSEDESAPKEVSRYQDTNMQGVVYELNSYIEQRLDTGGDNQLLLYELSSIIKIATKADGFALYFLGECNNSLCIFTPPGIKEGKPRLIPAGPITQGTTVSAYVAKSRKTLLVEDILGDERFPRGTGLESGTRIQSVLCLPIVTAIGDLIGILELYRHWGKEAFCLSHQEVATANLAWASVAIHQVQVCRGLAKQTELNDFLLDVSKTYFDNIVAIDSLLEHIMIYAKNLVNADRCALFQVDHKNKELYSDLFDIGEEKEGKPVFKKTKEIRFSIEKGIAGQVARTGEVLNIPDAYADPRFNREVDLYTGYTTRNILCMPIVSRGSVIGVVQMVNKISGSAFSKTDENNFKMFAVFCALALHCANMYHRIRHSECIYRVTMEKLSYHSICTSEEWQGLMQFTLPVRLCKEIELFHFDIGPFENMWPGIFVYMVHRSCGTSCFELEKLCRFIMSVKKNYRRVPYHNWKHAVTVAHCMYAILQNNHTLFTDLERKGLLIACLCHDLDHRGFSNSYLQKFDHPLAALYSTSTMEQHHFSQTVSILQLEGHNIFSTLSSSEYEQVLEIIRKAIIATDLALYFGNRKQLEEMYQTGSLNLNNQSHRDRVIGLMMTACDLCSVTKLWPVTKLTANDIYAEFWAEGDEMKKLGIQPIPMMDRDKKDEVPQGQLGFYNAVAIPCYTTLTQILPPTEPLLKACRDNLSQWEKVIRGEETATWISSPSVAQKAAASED
# Sequence of 3',5'-cyclic-AMP phosphodiesterase 4D (Homo sapiens) (Q08499 whole entry): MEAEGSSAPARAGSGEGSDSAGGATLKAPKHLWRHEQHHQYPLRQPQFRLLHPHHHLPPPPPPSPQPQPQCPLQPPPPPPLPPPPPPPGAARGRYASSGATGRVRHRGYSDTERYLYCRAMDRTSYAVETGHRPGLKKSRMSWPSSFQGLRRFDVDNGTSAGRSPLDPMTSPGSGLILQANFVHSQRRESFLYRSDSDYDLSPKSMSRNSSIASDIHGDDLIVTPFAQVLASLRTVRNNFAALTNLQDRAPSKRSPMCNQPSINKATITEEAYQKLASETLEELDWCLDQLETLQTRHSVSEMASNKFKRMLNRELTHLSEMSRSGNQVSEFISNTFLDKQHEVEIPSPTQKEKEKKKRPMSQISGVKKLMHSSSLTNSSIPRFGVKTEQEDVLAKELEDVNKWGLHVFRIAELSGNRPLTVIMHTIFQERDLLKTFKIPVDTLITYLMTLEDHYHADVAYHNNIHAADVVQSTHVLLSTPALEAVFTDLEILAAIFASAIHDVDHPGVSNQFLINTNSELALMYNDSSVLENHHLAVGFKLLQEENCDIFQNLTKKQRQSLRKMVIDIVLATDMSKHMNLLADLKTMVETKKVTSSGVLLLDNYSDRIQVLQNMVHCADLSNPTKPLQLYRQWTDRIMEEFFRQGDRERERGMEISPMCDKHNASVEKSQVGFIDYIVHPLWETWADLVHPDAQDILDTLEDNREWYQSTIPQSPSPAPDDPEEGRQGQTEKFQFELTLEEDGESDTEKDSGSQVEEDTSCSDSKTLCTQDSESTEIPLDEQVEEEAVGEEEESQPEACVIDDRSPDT
# Sequence of cGMP-inhibited 3',5'-cyclic phosphodiesterase 3A (Homo sapiens) (Q14432 whole entry): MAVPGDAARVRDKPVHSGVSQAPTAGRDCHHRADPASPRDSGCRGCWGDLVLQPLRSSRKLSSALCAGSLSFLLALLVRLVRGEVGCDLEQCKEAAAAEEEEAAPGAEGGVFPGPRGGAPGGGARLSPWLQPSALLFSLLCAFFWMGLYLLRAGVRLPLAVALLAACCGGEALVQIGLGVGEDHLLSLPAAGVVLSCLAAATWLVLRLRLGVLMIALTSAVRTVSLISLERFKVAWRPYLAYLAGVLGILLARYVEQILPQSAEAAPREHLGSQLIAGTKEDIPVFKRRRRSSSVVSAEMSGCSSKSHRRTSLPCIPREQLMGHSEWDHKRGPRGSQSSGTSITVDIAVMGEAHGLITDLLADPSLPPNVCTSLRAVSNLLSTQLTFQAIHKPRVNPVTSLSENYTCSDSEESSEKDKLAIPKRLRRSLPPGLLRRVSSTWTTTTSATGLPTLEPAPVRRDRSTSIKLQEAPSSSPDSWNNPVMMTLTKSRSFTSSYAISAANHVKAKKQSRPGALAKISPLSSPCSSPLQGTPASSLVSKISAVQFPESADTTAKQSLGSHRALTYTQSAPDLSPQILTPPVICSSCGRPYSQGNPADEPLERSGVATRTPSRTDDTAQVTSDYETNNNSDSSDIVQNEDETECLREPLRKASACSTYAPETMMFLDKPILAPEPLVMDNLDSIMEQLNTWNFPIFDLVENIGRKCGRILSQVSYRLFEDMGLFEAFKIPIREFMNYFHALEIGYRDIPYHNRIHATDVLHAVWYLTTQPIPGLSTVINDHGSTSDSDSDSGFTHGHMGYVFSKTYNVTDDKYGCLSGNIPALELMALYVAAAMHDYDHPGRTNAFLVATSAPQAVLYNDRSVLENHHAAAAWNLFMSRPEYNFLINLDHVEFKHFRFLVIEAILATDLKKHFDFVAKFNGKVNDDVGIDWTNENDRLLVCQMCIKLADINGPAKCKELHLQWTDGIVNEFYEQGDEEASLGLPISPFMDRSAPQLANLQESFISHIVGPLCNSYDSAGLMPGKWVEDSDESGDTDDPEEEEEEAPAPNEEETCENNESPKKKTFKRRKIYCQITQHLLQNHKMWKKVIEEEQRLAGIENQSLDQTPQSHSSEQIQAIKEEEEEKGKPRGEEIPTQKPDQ
smiles,measurement,setting,value
Cn1cc(-c2ccc(Oc3nccnc3-c3ccncc3)cc2)c2ncccc21,clearance,[1],1.6 mL/min/kg
same,Activity,[2],59%
same,inhibition,[3],2.5%
same,ED50,[4],1.63 mg/kg
same,Activity,[5],74%
same,remaining at 1 h,[6],70.5%
same,inhibition,[7],21.6%
same,Tmax,[8],2 h
same,Ratio ED50,[9],10.63
same,remaining at 1 h,[10],51%
same,inhibition,[11],98%
same,Drug uptake(free),[12],5 nM
same,clearance,[13],68.4 mL/min/kg
same,Activity,[14],99%
same,inhibition,[15],0%
same,Papp,[16],2.97 ×10⁻⁶ cm/s
same,IC50,[17],11.7 nM
same,half-life,[18],10.4 h
same,inhibition,[19],44.5%
same,inhibition,[20],33.8%
same,remaining at 1 h,[21],46.2%
same,Activity,[22],86%
same,Activity,[23],Dose-dependent effect
same,ED50,[23],1.47 mg/kg
same,Activity,[24],27%
same,Activity,[25],17%
same,Activity,[26],96%
